In patent US7012095B2, “Compounds for modulating cell proliferation” (HSC Research and Development Limited, priority 2000, dated 2006):
Values belong to the compound of their own block, whether it stands above or below them.

How the values were obtained:
[1] = system: normal bone marrow cells; experiment: CFU-GEMM assay, normal bone marrow differentiation in culture; assay type: cell-based; details: 14 days
Description: The CFU-GEMM assay was performed according to Fauser and Messner (1978, Blood, 52(6) 143–8) and Messner and Fausser (1980, Blut, 41(5) 327–33) with some variations. In brief, heparinized bone marrow cells were layered over Percoll (1.077 gm/ml) (Pharmacia Fine Chemical, Piscataway N.J.) and centrifuged at 400 g at 4° C. for 10 minutes to remove neutrophils and RBCs. The fractionated BM cells at 2×10^5 cells/ml were cultured in IMDM (OCI, Toronto) containing 0.9% (vol/vol) methylcellulose supplemented with 30% FCS (Cansera Rexdale, ON.) or normal human plasma, a cocktail of cytokines containing G-CSF (10 ng/ml, Amgen), IL-3 (40 U/ml, Immunex), MGF (50 ng/ml, Immunex), Erythropoietin (2 u/ml, Epprex) or TPO (10 ng/ml, Amgen), 5×10^−5M β-2-mercaptoethanol and the specified concentration of CR4. The culture mixture was plated in 1 ml volumes into 35 mm petri dishes and incubated at 37° C., 5% CO2 in a humidified atmosphere. All cultures were evaluated at 14 days for the number of BFU-E colonies (defined as aggregates of more than 500 hemoglobinized cells or, 3 or more erythroid subcolonies), CFU-GM colonies (defined as granulocyte or monocyte-macrophage cells or both), CFU-Meg colonies (comprising 4 or more megakaryocytes) and CFU-GEMM colonies (a mixed population comprising of all elements).
The CFU-GEMM assay was performed according to Fauser and Messner (1978, Blood, 52(6) 1243–8) and Messner and Fausser (1980, Blut, 41(5) 327–33) with some variations. In brief, heparinized bone marrow cells were layered over Percoll (1.077 gm/ml) (Pharmacia Fine Chemical, Piscataway N.J.) and centrifuged at 400 g at 4° C. for 10 minutes to remove neutrophils and RBCs. […] All cultures were evaluated at 14 days for the number of BFU-E colonies (defined as aggregates of more than 500 hemaglobinized cells or, 3 or more erythroid subcolonies) and CFU-C colonies (defined as granulocyte or monocyte-macrophage cells or both).
The CFU-GEMM assay was performed according to Fauser and Messner (1978, Blood, 52(6) 1243–8) and Messner and Fausser (1980, Blut, 41(5) 327–33) with some variations (British Journal of Haematology, 1992, 80, p40–48). […] All cultures were evaluated at 14 days for the number of BFU-E colonies (defined as aggregates of more than 500 hemoglobinized cells or, 3 or more erythroid subcolonies) and CFU-C colonies (defined as granulocyte or monocyte-macrophage cells or both).

[2] = system: variety of cancer cells (ALL, Philadelphia positive ALL, acute myeloid leukemia, myeloma, B-lineage lymphoma); experiment: Cancer cell growth in culture, summary statements; assay type: cell-based; details: for efficacy against a variety of cell types (Acute Lymphoblastic Leukemia, Philadelphia positive Leukemia, Acute Myeloid Leukemia): in culture
[3] = system: normal bone marrow cells; experiment: In vitro purging of normal bone marrow; assay type: cell-based; details: 50 μM, seven hours exposure, FIG. 21
Description: Heparinized bone marrow cells were layered over Percoll (1.077 gm/ml) (Pharmacia Fine Chemical, Piscataway N.J.) and centrifuged at 400 g at 4° C. for 10 minutes to remove neutrophils and RBCs.
For the purging process, the cells were resuspended at 1×10^6/ml in complete medium with or without 50 μM CR4. The cells were incubated with the CR4 for two and a half hours at 37° C., 5% CO2. At the end of this period the cells were thoroughly washed in medium to remove CR4 and then cultured at 2×10^5 cells/ml in IMDM (OCI, Toronto) containing 0.9% (vol/vol) methylcellulose supplemented with 30% FCS (Cansera Rexdale, ON.) or normal human plasma, a cocktail of cytokines containing G-CSF (10 ng/ml, Amgen), IL-3 (40 U/ml, Immunex), MGF (50 ng/ml, Immunex), Erythropoietin (2 u/ml, Epprex) or TPO (10 ng/ml, Amgen) and 5×10^−5M b-2-mercaptoethanol. The culture mixture was plated in 1 ml volumes into 35 mm petri dishes and incubated at 37° C., 5% CO2 in a humidified atmosphere. All cultures were evaluated at 14 days for the number of BFU-E colonies (defined as aggregates of more than 500 hemaglobinized cells or, 3 or more erythroid subcolonies), CFU-C colonies (defined as granulocyte or monocyte-macrophage cells or both) and CFU-GEMM colonies (a mixed population comprising of all elements).
For the purging process, the cells were resuspended at 1×10^6/ml in complete medium with or without 50 μM CR11. The cells were incubated with the tryrphostin for seven hours at 37° C., 5% CO2. At the end of this period the cells were thoroughly washed in medium to remove CR11 and then cultured at 2×10^5 cells/ml in IMDM (OCI, Toronto) containing 0.9% (vol/vol) methylcellulose supplementd with 30% FCS (Cansera Rexdale, ON.) or normal human plasma, a cocktail of cytokines containing G-CSF (10 ng/ml, Amgen), IL-3 (40 U/ml, Immunex), MGF (50 ng/ml, Immunex), Erythropoietin (2 u/ml, Epprex) or TPO (10 ng/ml, Amgen) and 5×10^−5M β-2-mercaptoethanol. The culture mixture was plated in 1 ml volumes into 35 mm petri dishes and incubated at 37° C., 5% CO2 in a humidified atmosphere. All cultures were evaluated at 14 days for the number of BFU-E colonies (defined as aggregates of more than 500 hemoglobinized cells or, 3 or more erythroid subcolonies), CFU-C colonies (defined as granulocyte or monocyte-macrophage cells or both) and CFU-GEMM colonies (a mixed population comprising of all elements).

[4] = system: Philadelphia positive ALL, AML and lymphoma; experiment: In vitro / ex vivo purging assays, summary statements; assay type: cell-based
[5] = system: Ph+ ALL cells; experiment: Killing of Philadelphia positive ALL cells in methylcellulose colony culture; assay type: cell-based, human
Description: (§1) Ph+ ALL cells were plated in 1 ml volumes, in the absence of exogenous growth factors, into 35 mm petri dishes (Nunc, Gibco) containing alpha MEM (Gibco) plus 10% FCS (Cansera Rexdale, ON.) in 0.9% (vol/vol) methylcellulose (Fluka, Switzerland) with the indicated concentrations of CR4. Cultures were set at 37° C., 5% CO2 in a humidified atmosphere. Colonies consisting of more than 20 cells were counted at 12 days or earlier using an inverted microscope.
as §1, with “ALL” for “Ph+ ALL”, “20%” for “10%”, “and” for “with”, “compound.” for “CR4.”
as §1, with “ALL” for “Ph+ ALL”, “20%” for “10%”, “and” for “with”, “CR24.” for “CR4.”, “9” for “12”, “microscope. […]” for “microscope.”

Structure (SMILES): N#C/C(=C\C=C\c1ccccc1)C(=O)NCc1ccc(O)c(O)c1 [CR19, (E,E)-2-(3,4 Dihydroxybenzylamido)-3-styrylacrylonitrile]
stimulatory effect on CFU-C colony formation ([1]; 5 μM, FIG. 12): disappeared
efficacy against a variety of cell types (Acute Lymphoblastic Leukemia, Philadelphia positive Leukemia, Acute Myeloid Leukemia) [2]: highly effective
toxicity to cancer cells ([2]; low nanomolar doses, long term exposure): highly toxic

BFU-E, CFU-GEMM and CFU-C colonies [3]: all normal
Structure (SMILES): COc1cc(/C=C/C=C(\C#N)C(=O)NCc2ccc(O)c(O)c2)cc(OC)c1O [CR11, (E,E)-2-(3,4-Dihydroxybenzylamido)-3-(3,5-dimethoxy-4-hydroxystyryl)acrylonitrile]
inhibition of colony formation ([3]; 14 days): did not result in any significant inhibition
efficacy against a variety of cell types (Acute Lymphoblastic Leukemia, Philadelphia positive Leukemia, Acute Myeloid Leukemia) [2]: highly effective
efficacy as ex vivo purging agents [4]: effective

Structure (SMILES): COc1cc(/C=C/C=C(\C#N)C(=O)NCCO)cc(OC)c1O [CR24, (E,E)-2-(β-Ethanolamido)-3-(3,5-dimethoxy-4-hydroxystyryl)acrylonitrile]
lowest concentration effective against Ph+ ALL cells ([5]; colonies at 9 days, FIG. 10): 0.5 µM

inhibition of BFU-E colony formation ([1]; 20 μM, FIG. 13): inhibition
Structure (SMILES): N#C/C(=C\C=C\c1ccc(O)c(O)c1)C(=O)NCc1ccc(O)c(O)c1 [CR21, (E,E)-2-(3,4 Dihydroxybenzylamido)-3-(3,4-dihydroxystyryl)acrylonitrile]
concentration inhibiting cell growth ([5]; Ph+ ALL, colonies at 12 days, FIG. 8): 5 µM
